# Source: patent US10246420B2, “Pyrazole derivatives” (BAYER CROPSCIENCE AKTIENGESELLSCHAFT, priority 2014, dated 2019)
# System: Sphaerotheca fuliginea
# Assay: Biological Example C3 (comparative): in vivo preventive test on Sphaerotheca fuliginea (cucumbers)
# Details: rate of application 50 ppm, evaluated 7 days after inoculation
# Description: (§1) To produce a suitable preparation of active compound, 1 part by weight of active compound is mixed with the stated amounts of solvent and emulsifier, and the concentrate is diluted with water to the desired concentration.
# (§2) To test for preventive activity, young plants are sprayed with the preparation of active compound at the stated rate of application. After the spray coating has dried on, the plants are inoculated with an aqueous spore suspension of Sphaerotheca fuliginea. The plants are then placed in a greenhouse at approximately 23° C. and a relative atmospheric humidity of approximately 70%.
# (§3) The test is evaluated 7 days after the inoculation. 0% means an efficacy which corresponds to that of the untreated control, while an efficacy of 100% means that no disease is observed.
row,Structure (SMILES),Efficacy in %
1,C#CCOc1cc(F)cc(F)c1Nc1c(-c2ccc(F)cc2Cl)c(C)nn1C [Example I-01],98%
2,"CCCOc1cc(F)cc(F)c1Nc1c(-c2ccc(F)cc2Cl)c(C)nn1C [drawing 22, reference compound]",10%

# System: Phakopsora pachyrhizi
# Assay: Biological Example C2 (comparative): in vivo preventive test on Phakopsora pachyrhizi (soybeans)
# Details: rate of application 250 ppm, evaluated 7 days after inoculation
# Description: as §1
# To test for preventive activity, young plants are sprayed with the preparation of active compound at the stated rate of application. After the spray coating has dried on, the plants are inoculated with an aqueous spore suspension of the causal agent of soybean rust (Phakopsora pachyrhizi) and stay for 24 h without light in an incubation cabinet at approximately 24° C. and a relative atmospheric humidity of 95%. The plants remain in the incubation cabinet at approximately 24° C. and a relative atmospheric humidity of approximately 80% and a day/night interval of 12 h.
# as §3
row,Structure (SMILES),Efficacy in %
1,C#CCOc1cc(F)cc(F)c1Nc1c(-c2ccc(F)cc2Cl)c(C)nn1C [Example I-01],94%
2,"CCCOc1cc(F)cc(F)c1Nc1c(-c2ccc(F)cc2Cl)c(C)nn1C [drawing 20, reference compound]",53%

# System: not listed separately
# Assay: Log P by HPLC on reversed phase columns (EEC directive 79/831 Annex V.A8)
# Assay type: physicochemical
# Details: not given
# Description: Measurement of Log P values was performed according to EEC directive 79/831 Annex V.A8 by HPLC (High Performance Liquid Chromatography) on reversed phase columns with the following methods:
# [^a] Log P value is determined by measurement of LC-UV, in an acidic range, with 0.1% formic acid in water and acetonitrile as eluent (linear gradient from 10% acetonitrile to 95% acetonitrile).
# [^b] Log P value is determined by measurement of LC-UV, in a neutral range, with 0.001 molar ammonium acetate solution in water and acetonitrile as eluent (linear gradient from 10% acetonitrile to 95% acetonitrile).
# [^c] Log P value is determined by measurement of LC-UV, in an acidic range, with 0.1% phosphoric acid and acetonitrile as eluent (linear gradient from 10% acetonitrile to 95% acetonitrile).
# Calibration was done with straight-chain alkan-2-ones (with 3 to 16 carbon atoms) with known Log P values (measurement of Log P values using retention times with linear interpolation between successive alkanones). Lambda-max-values were determined using UV-spectra from 200 nm to 400 nm and the peak values of the chromatographic signals.
Structure (SMILES),LogP [a],LogP [b]
C#CCOc1cccc(Cl)c1Nc1c(-c2ccc(F)cc2F)c(C)nn1C [Example I-67],3.26^[a],–
C=CCOc1cc(F)c(N=C=S)c(F)c1 [Z-ii-01],4.54^[a],–
C#CCOc1cc(F)c(N=C=S)c(F)c1 [Z-ii-02],3.86^[a],–
C=CCOc1ccc(N=C=S)cc1 [Z-ii-05],4.06,4.09
C=CCOc1ccc(N=C=S)cc1F [Z-ii-06],4.06^[a],–
C=CCOc1ccc(F)c(N=C=S)c1 [Z-ii-07],4.30^[a],–
C#CCOc1ccc(F)c(N=C=S)c1 [Z-ii-08],3.62^[a],–
C#CCOc1cc(F)c(N=C=S)cc1F [Z-ii-09],3.64^[a],–
C=CCOc1cc(F)c(N=C=S)cc1F [Z-ii-10],4.24^[a],–
C#CCOc1ccc(N=C=S)cc1F [Z-ii-11],3.47^[a],–
C#CCOc1ccc(N=C=S)c(Cl)c1 [Z-ii-12],3.99,3.96
C=CCOc1ccc(N=C=S)c(Cl)c1 [Z-ii-13],4.72^[a]; 4.72^[b],4.72^[a]; 4.72^[b]
C#CCOc1cccc(Cl)c1N=C=S [Z-ii-14],3.86^[a],–
C=CCOc1ccc(F)cc1N=C=S [Z-ii-16],4.24^[a],–
C#CCOc1ccc(F)cc1N=C=S [Z-ii-17],3.62^[a],–
C#CCOc1cc(C)ccc1N=C=S [Z-ii-18],3.82^[a],–
C=CCOc1ccc(C#N)cc1N=C=S [Z-ii-19],3.71^[a],–
C#CCOc1ccc(C#N)cc1N=C=S [Z-ii-20],3.13^[a],–
C#CCOc1cc(F)cc(F)c1NC(=S)C(C(C)=O)c1ccc(F)cc1Cl (stereo not shown) [Z-ix-03],3.65^[a],–

# Same assay, conditions: LC-UV, acidic range, 0.1% formic acid in water and acetonitrile as eluent; read-out: LogP [a]
row,Structure (SMILES),chromatographic logP
1,"C#CCOc1cc(F)cc(F)c1N=C=S [Z-ii-03, 3,5-difluoro-2-isothiocyanatophenyl prop-2-yn-1-yl ether]",3.68
2,"C=CCOc1ccc(CC(C)=O)c(F)c1 [Z-iv-01, 1-[4-(allyloxy)-2-fluorophenyl]acetone]",2.6
3,"COc1ccc(CC(C)=O)c(F)c1 [Z-iv-02, 1-(2-fluoro-4-methoxyphenyl)acetone]",1.95

# Same assay, conditions: pH 2.3; read-out: log P (pH 2.3)
row,Structure (SMILES),chromatographic logP
1,"C#CCOc1cc(F)cc(F)c1N=C=S [Z-ii-03, 3,5-difluoro-2-isothiocyanatophenyl prop-2-yn-1-yl ether]",3.72

# Same assay, conditions: reversed phase HPLC columns, LC-UV, acidic range, 0.1% formic acid in water and acetonitrile as eluent; read-out: LogP [a]
row,Structure (SMILES),chromatographic logP
1,C#CCOc1cc(F)cc(F)c1Nc1c(-c2ccc(F)cc2Cl)c(C)nn1C [Example I-01],3.26

# Same assay, conditions: reversed phase HPLC columns, LC-UV, acidic range, 0.1% phosphoric acid and acetonitrile as eluent; read-out: LogP [c]
row,Structure (SMILES),chromatographic logP
1,C#CCOc1cc(F)cc(F)c1Nc1c(-c2ccc(F)cc2Cl)c(C)nn1C [Example I-01],3.1

# System: Alternaria solani
# Assay: Biological Example C1 (comparative): in vivo preventive test on Alternaria solani (tomatoes)
# Details: rate of application 50 ppm, evaluated 3 days after inoculation
# Description: as §1
# as §2, with “Alternaria solani.” for “Sphaerotheca fuliginea.”, “an incubation cabinet” for “a greenhouse”, “20°” for “23°”, “100%.” for “approximately 70%.”
# The test is evaluated 3 days after the inoculation. 0% means an efficacy which corresponds to that of the untreated control while an efficacy of 100% means that no disease is observed.
row,Structure (SMILES),Efficacy in %
1,C#CCOc1cc(F)cc(F)c1Nc1c(-c2ccc(F)cc2Cl)c(C)nn1C [Example I-01],96%
2,"CCCOc1cc(F)cc(F)c1Nc1c(-c2ccc(F)cc2Cl)c(C)nn1C [drawing 18, reference compound]",40%
